The values that follow come from patent US20250000846A1, “METHODS OF TREATMENT OR PREVENTION OF ACUTE BRAIN OR NERVE INJURIES” (Annovis Bio, Inc., priority 2015, published 2025).

Assay [1] relates to retinal neurons. Nature of the assay: Retinal ischemia-reperfusion (IR), Cell Death ELISA of retina. The assay is classed as in vivo, Sprague-Dawley rats. To be noted: posiphen tartrate 30 mg/kg oral gavage once per day. The source says: IR is a well-established experimental model of glaucoma as well as neuronal cell death in other retinal diseases. IR was induced on one eye of each rat while the opposite eye served as an internal control. Transient IR was induced by raising the intraocular pressure by a controlled micro-injection of saline into the anterior chamber of the eye. This approach is well established to induce large amounts of apoptotic cell death in the retina, beginning within hours after the reperfusion and continuing for several days, leading to a loss of about 50% of the retina. There would also be a dramatic and persistent increase in the permeability of the vasculature of the inner retina during this period, which may lead to edema.
Adult male Sprague-Dawley rats (approx. 450 g, n=8) were housed under normal 12 hr light/dark conditions with free access to food and water. Rats were given posiphen tartrate (30 mg/kg body weight, delivered in 15 mg/ml water) or an equivalent volume of water (vehicle) by oral gavage once per day. Gavage was performed daily over three days and then on the fourth day IR was induced in anesthetized rats (ketamine:xylazine, 100:10 mg/kg, i.p.). […] The retinas were homogenized and fractionated to obtain a cytoplasmic sample which was assessed for nucleosome content in duplicate, using the Cell Death ELISA (Roche). Data were averaged and expressed as optical density (OD). […]
On the technique in general: An ELISA detects its analyte on a solid surface through an enzyme-linked reagent.

Assay [2] relates to TH+ terminals in the striatum. Nature of the assay: Fluid percussion injury (mild TBI), tyrosine hydroxylase (TH) immunoreactivity in striatum. The assay is classed as in vivo, rats. The procedure: Rats were subjected to fluid percussion injury (FPI) or sham operation to one side of the brain using the same procedures described in Griesbach et al (Brain Research, 1288: 105-115,2009, PMCID:PMC2735616) and Hutson et al (J. Neurotrauma, Jun. 6, 2011; PMID:21644813). […] About 5 to 30 minutes after FPI or sham operation, the rats were administered with saline or posiphen tartrate at a dose of 2.5, 5 or 10 mg/kg body weight intraperitoneally and also daily for the next 28 to 32 days. At 90 minutes after the last saline or posiphen treatment, all the rats were sacrificed and sections of the brain of each of the rats were stained for tyrosine hydroxylase (TH), wherein TH stains only live cells. The amounts of TH immunoreactivity in the whole striatum of the brain slices were measured, Stereological analysis of dopaminergic (DA) neurons in the substantia nigra was conducted to determine whether posiphen would block the TBI-induced loss of DA neurons ipsilateral and contralateral to the FPI injury, using procedures described in Johnson et al (Brain Pathol. Jun. 29, 2011, doi: 10.1111/j.1750-3639.2011.00513.x) and Hoshino et al (Neurol. Med. Chir. (Tokyo), 2003 April; 43 (4): 165-74). The groups of rats included the rats with LOC above/at the median value. In FIG. 2, the sham operated group was compared with the vehicle group with two-way ANOVA, Bonferroni comparisons, wherein *p<0.05. In FIG. 3, the vehicle group was compared with the posiphen-treatment groups with one-way ANOVA, Bonferroni comparisons, wherein ^#p<0.05.

In assay [3] the test system is IBA-1+ microglia cells in the substantia nigra. Nature of the assay: Fluid percussion injury, microglial activation by diameter of IBA-1-positive cells in substantia nigra. The format is in vivo, rats. To be noted: 10 mg/kg. The procedure: Because FPI can induce microglial activation according to Hutson et al (J. Neurotrauma, Jun. 6, 2011; PMID:21644813), whether posiphen would reverse this pathological response using quantitative measures was tested in the vehicle or posiphen tartrate treated (10 mg/kg) rats from Example 2 (part of the brain from each of the euthanized rat was stained for tyrosine hydroxylase in Example 2 and another part of the brain was stained for microglia in Example 3). Microglial activation was assessed by quantitative measure of the diameter of IBA-1-positive cells, wherein IBA-1 stands for ionized calcium adaptor binding protein.
Analysis was done on a Leica DM-LB microscope with a Ludl XYZ motorized stage and z-axis microcator (MT12, Heidenheim, Traunreut, Germany) using StereoInvestigator software
(MicroBrightField, Colchester, VT). A contour was drawn to delineate the substantia nigra under the 5× objective lens to ensure anatomical accuracy. Following delineation, the diameters of microglial cell bodies were measured in the first counting frame (100 μm) and then in every fifth counting frame at 40× magnification. This sampling frequency was chosen in order to count approximately 30-50 IBA-1+ cells in each side of the substantia nigra. The first counting frame was always positioned in the upper left corner of the contour and systematically moved from left to right and from top to bottom until the entire delineated contour region was sampled. The number of IBA-1+ microglia cells with cell diameters ranging from 1 μm to 14 μm was then normalized to the total number counted in each section and expressed as a percentage of total microglia. The results are shown in FIG. 4 (wherein the percent of IBA-1+ cells was plotted on the vertical axis, and the microglial cell diameter in um was plotted on the horizontal axis). In FIG. 4, the blank portion of each data bar represents the mean % of IB A-1+ cells with the solid or striped portion at the top of the bar representing the 95% confidence interval. In each pair of data bars in FIG. 4, the bar on the left having a solid portion at the top represents data from the vehicle-treated group, while the bar on the right having a striped portion at the top represents data from the 10 mg/kg posiphen-treated group, wherein the data of the posiphen-treated group (the bar on the right) were compared with the data of the vehicle-treated group (the bar on the left) with Bootstrapping method. The asterisks (*) at the top of some of the bars of the 10 mg/kg posiphen-treated group indicate statistical significance at p<0.05 when compared with the data of the corresponding bar of the vehicle-treated group as analyzed with the Bootstrapping method. Posiphen increased the number of resting microglia and reduced the number of activated microglia.

Assay [4] relates to rats subjected to mild traumatic brain injury. Nature of the assay: Working memory test in Morris water maze after fluid percussion injury. The assay is classed as in vivo. The procedure:
The vehicle or posiphen tartrate treated rats from Example 2 were also subjected to working memory test in Morris water maze. Each of the rats was individually tested in the Morris water maze, which had 4 release points for putting the rat into the water and 4 platforms for the rat to swim to. For a total of 3 consecutive days (on one and two days before the last vehicle or posiphen treatment, and also on the day of the last vehicle or posiphen treatment before euthanasia), the rats were tested on their ability to find the 4 platform positions, using paired trials (4 paired trials per day). In each pair of the trials, the first trial was the learning trial, for the rat to learn the position of a platform, and the second trial was the memory trial for testing the memory of the rat to swim to the platform that the rat learned in the learning trial. In the learning trial, each of the rats was allowed a maximum swim time of 90 seconds to swim to the platform, and guided to the platform if needed after 90 seconds. The memory trial was started 5 seconds after the completion of the learning trial and the time for the rat to reach the platform by swimming in the maze in the memory trial was recorded. The 4 platform positions were switched after every pair of trials. The time interval between the learning trials of two consecutive pairs of trials in a day was 5 minutes. […]

SMILES strings stand for the structures.

Take `CN1CC[C@]2(C)c3cc(OC(=O)Nc4ccccc4)ccc3N(C)C12` (stereo partly drawn) [posiphen, (3aR)-1,3a,8-trimethyl-1,2,3,3a,8,8a-hexahydropyrrolo[2,3-b]indol-5-yl phenylcarbamate]: the “number of dead nerve cells in retina of IR eye (IR-Pos) versus opposite eye (control-Pos)” value in assay [1] is recorded as “only slightly more”. In assay [1] (eye subjected to transient IR (IR-Pos), N=6), this compound returned a retinal neurons rescued of 72%. Moreover, the “number of surviving cells in the ipsilateral area of the brain (striatum)” value in assay [2] (2.5, 5 and 10 mg/kg i.p. daily for 28 to 32 days, all 3 doses) is reported as “statistically significant increase”. In assay [2] (all posiphen-treated groups (2.5, 5, 10 mg/kg), one-way ANOVA, p<0.05), the “TH+ fluorescence intensity versus vehicle-treated group” value was “significantly higher”. In addition, the “number of nerve cells of the striatum in the contralateral part of the brain” value in assay [2] (highest dose of 10 mg/kg i.p. daily) is recorded as “an increase”. Further, in assay [2] (posiphen treated animals, ipsilateral side), the “protection of the TH+ cells in ipsilateral striatum (whole, rostral, medial and caudal)” value is listed as “full protection”. Also, the “FPI-induced decrease in the TH+ terminals in the striatum” value in assay [2] (rat, in vivo) is on record as “attenuated”. For the same compound, in assay [3], the “brain inflammation after traumatic brain injury” value was “decreased”. Further, in assay [3] (statistically significant), the “FPI-increased microglia activation in the substantia nigra ipsilateral to the injury” value is recorded as “attenuated”. Besides, in assay [3] (versus vehicle-treated group), the “number of activated microglia” value is “reduced” and the “number of resting microglia” value is recorded as “increased”. Also, the “latency to find the platform versus vehicle-treated group” value in assay [4] (2.5 mg/kg and 5 mg/kg, p=0.0961) is given as “non-significant trend toward a reduction”. In assay [4] (10 mg/kg, p=0.0335), the “latency to reach the platform in memory trials versus vehicle-treated group” value is “amelioration of this deficit”.
